Data: paper PMC11404848, “Stenotrophomonas maltophilia uses a c-di-GMP module to sense the mammalian body temperature during infection” (PLOS Pathogens, 2024)

Target: T1, BtsD^Δ(SP-GGDEF)
T1 construct: N-terminal region; signal peptide (1-42) and GGDEF domain (836-1008) deleted; borders derived from printed deletions; expressed in E. coli BL21(DE3), His6 tag kept or GST tag cut
Test: MicroScale Thermophoresis
Assay type: binding, Stenotrophomonas maltophilia
Settings: PBS pH 6.5; protein labelled with Red NHS dye
Source text: MicroScale Thermophoresis on BtsD^Δ(SP-GGDEF) | BtsD^Δ(SP-GGDEF) directly bound with c-di-GMP and Sensor^BtsK

## Nc1nc2c(ncn2[C@@H]2O[C@@H]3COP(=O)(O)O[C@H]4[C@@H](O)[C@H](n5cnc6c(=O)[nH]c(N)nc65)O[C@@H]4COP(=O)(O)O[C@H]3[C@H]2O)c(=O)[nH]1 [c-di-GMP]
  Kd: 8.72 ± 4.12 µM
